Patent publication US9662327B2 (AGIOS PHARMACEUTICALS, INC, priority 2011, dated 2017)

Experiments:
HT1080 cells = test: Cellular assay for IDH1m inhibitors: inhibition of 2-HG production in HT1080 cells (LC-MS); format: cell-based; settings: Homo sapiens, HT-1080, 48 hours
Outline: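 HT1080 or U87MG cells seeded at 5000 cells/well overnight, then compound added (final DMSO 0.2%) and incubated 48 hours at 37 C. 2-HG in the medium quantified by LC-MS; viability checked by CellTiter-Glo luminescence at 72 hours post compound.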

IDH1 R132H = IDH1 R132H (Homo sapiens (Human), UniProt O75874, R132H); test: Assays for IDH1 R132H Inhibitors (NADPH/aKG, resazurin detection); format: biochemical; settings: IDH1 R132H enzyme, Table 3; read-out: R132H IC50
Sequence of IDH1 R132H (O75874 whole entry R132H): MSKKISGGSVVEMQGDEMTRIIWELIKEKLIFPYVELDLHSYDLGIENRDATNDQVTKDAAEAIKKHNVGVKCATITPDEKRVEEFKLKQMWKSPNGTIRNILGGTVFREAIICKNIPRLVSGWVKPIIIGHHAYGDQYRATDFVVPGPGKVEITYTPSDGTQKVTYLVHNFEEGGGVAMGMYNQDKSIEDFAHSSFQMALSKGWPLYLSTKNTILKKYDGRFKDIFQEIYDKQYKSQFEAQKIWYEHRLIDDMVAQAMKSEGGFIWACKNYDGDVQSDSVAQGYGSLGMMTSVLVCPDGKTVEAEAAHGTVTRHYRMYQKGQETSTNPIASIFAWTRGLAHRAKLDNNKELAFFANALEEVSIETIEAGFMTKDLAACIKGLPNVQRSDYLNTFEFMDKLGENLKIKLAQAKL
Outline: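 Mutant enzyme in 150 mM NaCl, 10 mM MgCl2, 20 mM Tris pH 7.5, 0.03% BSA; compound in DMSO added to substrate mix of 8 uM NADPH and 2 mM aKG. Reaction ran 50 min at room temperature, then resazurin detection mix (30 μM) added for 5 min at room temperature.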

U87R132H (U87MG) cells = test: Cellular assay for IDH1m inhibitors: inhibition of 2-HG production in U87MG (U87R132H) cells (LC-MS); format: cell-based; settings: Homo sapiens, U-87 MG, 48 hours
Description: Cells (e.g., HT1080 or U87MG) are grown in T125 flasks in DMEM containing 10% FBS, 1× penicillin/streptomycin and 500 ug/mL G418. They are harvested by trypsin and seeded into 96 well white bottom plates at a density of 5000 cell/well in 100 ul/well in DMEM with 10% FBS. No cells are plates in columns 1 and 12. Cells are incubated overnight at 37 C in 5% CO2. The next day compounds are made up at 2× concentration and 100 ul are added to each cell well. The final concentration of DMSO is 0.2% and the DMSO control wells are plated in row G. The plates are then placed in the incubator for 48 hours. At 48 hours, 100 ul of media is removed from each well and analyzed by LC-MS for 2-HG concentrations. The cell plate is placed back in the incubator for another 24 hours. At 72 hours post compound addition, 10 mL/plate of Promega Cell Titer Glo reagent is thawed and mixed. The cell plate is removed from the incubator and allowed to equilibrate to room temperature. Then 100 ul of reagent is added to each well of media. The cell plate is then placed on an orbital shaker for 10 minutes and then allowed to sit at room temperature for 20 minutes. The plate is then read for luminescence with an integration time of 500 ms.

| IC50 (HT1080 cells) [nM] | IC50 (IDH1 R132H) [nM] | IC50 (U87R132H (U87MG) cells) [nM] | Compound |
| --- | --- | --- | --- |
| 500 to 1000 | < 500 | < 500 | CCOC(=O)[C@@H]1C[C@H]1C(=O)N1CCN(c2nc(C3CC3)c3c(c2C#N)CC(C)(C)OC3)C[C@H]1C(C)C [Compound 465, (1R,2R)-ethyl 2-((R)-4-(5-cyano-8-cyclopropyl-3,3-dimethyl-3,4-dihydro-1H-pyrano[3,4-c]pyridin-6-yl)-2-isopropylpiperazine-1-carbonyl)cyclopropanecarboxylate] |
| 1000 to 10000 | < 500 | 1000 to 10000 | COCCC(=O)N1CCN(c2nc(C3CC3)c3c(c2C#N)CC(C)(C)OC3)CC1CC(F)(F)F (stereo not drawn) [Compound 469, 8-cyclopropyl-6-(4-(3-methoxypropanoyl)-3-(2,2,2-trifluoroethyl)piperazin-1-yl)-3,3-dimethyl-3,4-dihydro-1H-pyrano[3,4-c]pyridine-5-carbonitrile] |
| < 500 | < 500 | 500 to 1000 | CC(C)[C@@H]1CN(c2nc(C3CC3)c3c(c2C#N)CC(C)(C)OC3)CCN1C(=O)CC1CCO1 (stereo partly drawn) [Compound 473, 8-cyclopropyl-6-((3R)-3-isopropyl-4-(2-(oxetan-2-yl)acetyl)piperazin-1-yl)-3,3-dimethyl-3,4-dihydro-1H-pyrano[3,4-c]pyridine-5-carbonitrile] |
| 1000 to 10000 | < 500 | 1000 to 10000 | [2H]C1([2H])CN(c2nc(C3CC3)c3c(c2C#N)CC(C)(C)OC3)C([2H])([2H])C([2H])(C([2H])(C([2H])([2H])[2H])C([2H])([2H])[2H])N1C(=O)CC(F)(F)F [Compound 476, (R)-8-cyclopropyl-3,3-dimethyl-6-(2,2,3,5,5-pentadeuterio-3-(1,1,1,3,3,3-hexadeuteriopropan-2-yl)-4-(3,3,3-trifluoropropanoyl)piperazin-1-yl)-3,4-dihydro-1H-pyrano[3,4-c]pyridine-5-carbonitrile] |
| 1000 to 10000 | < 500 | 1000 to 10000 | [2H]C([2H])([2H])C([2H])(C([2H])([2H])[2H])[C@@]1([2H])N(C(=O)CC(F)(F)F)C([2H])([2H])C([2H])([2H])N(c2nc(C3CC3)c3c(c2C#N)CC(C)(C)OC3)C1([2H])[2H] [Compound 477, (R)-8-cyclopropyl-3,3-dimethyl-6-(2,2,3,5,5-pentadeuterio-3-(1,1,1,3,3,3-hexadeuteriopropan-2-yl)-4-(3,3,3-trifluoropropanoyl)piperazin-1-yl)-3,4-dihydro-1H-pyrano[3,4-c]pyridine-5-carbonitrile] |
| 500 to 1000 | < 500 | < 500 | COCCC(=O)N1CCN(c2nc(C3CC3)c3c(c2C#N)CCN(S(C)(=O)=O)C3)C[C@H]1C1CC1 [Compound 479, (R)-1-cyclopropyl-3-(3-cyclopropyl-4-(3-methoxypropanoyl)piperazin-1-yl)-7-(methylsulfonyl)-5,6,7,8-tetrahydro-2,7-naphthyridine-4-carbonitrile] |
| 1000 to 10000 | < 500 | 500 to 1000 | CS(=O)(=O)N1CCc2c(C#N)c(N3CCN(C(=O)C4CC4)[C@H](C4CC4)C3)nc(C3CC3)c2C1 [Compound 481, (R)-3-(4-(cyclopropanecarbonyl)-3-cyclopropylpiperazin-1-yl)-1-cyclopropyl-7-(methylsulfonyl)-5,6,7,8-tetrahydro-2,7-naphthyridine-4-carbonitrile] |
| < 500 | < 500 | < 500 | C=CC(=O)N1CCc2c(C3CC3)nc(N3CCN(C(=O)CCOC)[C@H](C4CC4)C3)c(C#N)c2C1 [Compound 483, (R)-6-acryloyl-1-cyclopropyl-3-(3-cyclopropyl-4-(3-methoxypropanoyl)piperazin-1-yl)-5,6,7,8-tetrahydro-2,6-naphthyridine-4-carbonitrile] |
| < 500 | < 500 | < 500 | C=CC(=O)N1CCc2c(C#N)c(N3CCN(C(=O)CCOC)[C@H](C4CC4)C3)nc(C3CC3)c2C1 [Compound 485, (R)-7-acryloyl-1-cyclopropyl-3-(3-cyclopropyl-4-(3-methoxypropanoyl)piperazin-1-yl)-5,6,7,8-tetrahydro-2,7-naphthyridine-4-carbonitrile] |
| < 500 | < 500 | < 500 | C#CC(=O)N1CCc2c(C3CC3)nc(N3CCN(C(=O)CCOC)[C@H](C4CC4)C3)c(C#N)c2C1 [Compound 486, (R)-1-cyclopropyl-3-(3-cyclopropyl-4-(3-methoxypropanoyl)piperazin-1-yl)-6-propioloyl-5,6,7,8-tetrahydro-2,6-naphthyridine-4-carbonitrile] |
| < 500 | < 500 | < 500 | C=CS(=O)(=O)N1CCc2c(C#N)c(N3CCN(C(=O)C4CC4)[C@H](C4CC4)C3)nc(C3CC3)c2C1 [Compound 493, (R)-3-(4-(cyclopropanecarbonyl)-3-cyclopropylpiperazin-1-yl)-1-cyclopropyl-7-(vinylsulfonyl)-5,6,7,8-tetrahydro-2,7-naphthyridine-4-carbonitrile] |
| < 500 | 500 to 1000 | < 500 | COC(=O)N1CCc2c(C#N)c(N3CCN(C(=O)C4CC4)[C@H](C4CC4)C3)nc(C3CC3)c2C1 [Compound 494, (R)-methyl 5-cyano-6-(4-(cyclopropanecarbonyl)-3-cyclopropylpiperazin-1-yl)-8-cyclopropyl-3,4-dihydro-2,7-naphthyridine-2(1H)-carboxylate] |
| < 500 | < 500 | < 500 | C=CS(=O)(=O)N1CCc2c(C#N)c(-c3ccc(C(=O)OC)cc3F)nc(C3CC3)c2C1 [Compound 496] |
| < 500 | < 500 | < 500 | C=CC(=O)N1CCc2c(C#N)c(N3CCN(C(=O)CCO)[C@H](C4CC4)C3)nc(C3CC3)c2C1 [Compound 498, (R)-7-acryloyl-1-cyclopropyl-3-(3-cyclopropyl-4-(3-hydroxypropanoyl)piperazin-1-yl)-5,6,7,8-tetrahydro-2,7-naphthyridine-4-carbonitrile] |
